In patent US20220110847A1, “USE OF COOLING MATERIALS FOR THE REDUCTION OR INHIBITION OF SALTINESS IN ORALLY ADMINISTERED, IMBIBED OR INGESTED CONSUMER PRODUCTS” (TAKASAGO INTERNATIONAL CORPORATION, priority 2019, published 2022):

Assay: Saltiness rating of toothpaste samples by an expert panel
Assay type: in vivo
Conditions: for Average RATING (saltiness): saltiness scale of 1 (less salty) to 7 (most salty), 7 evaluators, cooling material at 0.2 % (table) in commercial toothpaste with approximately 50% by weight sodium bicarbonate, Control 6.43; for perceived salty taste compared with both the Control and the other tested cooling materials: cooling material added to commercial toothpaste with approximately 50% sodium bicarbonate, expert panel
Protocol: A sample of a commercially available toothpaste containing approximately 50% by weight of sodium bicarbonate was used as a Control. […] All of the toothpaste samples, including the Control, were evaluated by an expert panel comprised of 4 Flavorist(s), 2 Flavor Lab Managers, and 1 Flavor Lab Technician. Each sample was assigned a number by each evaluator to indicate saltiness, using a saltiness scale of 1(less salty) to 7(most salty).

Compound | Average RATING (saltiness) | perceived salty taste compared with both the Control and the other tested cooling materials
CNC(=O)C(C)(C(C)C)C(C)C [2-isopropyl-N,2,3-trimethylbutyramide, reference compound] | 6 | –
CC1CCC(C(C)(C)O)C(O)C1 (centres unmarked) [p-menthane-3,8-diol] | 5.86 | less salty taste
CC(O)CC(=O)O[C@@H]1C[C@H](C)CC[C@H]1C(C)C (stereo partly drawn) [L-menthyl-3-hydroxybutanoate] | 3.86 | less salty taste
CC(=O)C1CCC(C)CC1O (centres unmarked) [1-(2-hydroxy-4-methylcyclohexyl)-ethanone] | 2.43 | less salty taste
CCOC(=O)CNC(=O)C1CC(C)CCC1C(C)C (centres unmarked) [N-[(ethoxycarbonyl)methyl)-p-menthane-3-carboxamide, reference compound] | 6.43 | –
C=C(C)[C@@H]1CC[C@@H](C)C[C@H]1O [1-isopulegol, reference compound] | 6.29 | –
COc1ccc(NC(=O)C2CC(C)CCC2C(C)C)cc1 (centres unmarked) [N-(4-methoxyphenyl)-p-menthanecarboxamide] | 5.57 | less salty taste
CC1CCC(C(C)C)C(OCCO)C1 (centres unmarked) [hydroxyethyl-menthyl ether] | 5.57 | less salty taste
CC(C)[C@@H]1CC[C@@H](C)C[C@H]1OCC(O)CO (stereo partly drawn) [3-L-menthoxypropan-1,2-diol] | 3.00 | less salty taste
CC1CCC(C(C)C)C(OC(=O)C(C)O)C1 (centres unmarked) [Menthyl Lactate, reference compound] | 6.43 | –
CCNC(=O)C1CC(C)CCC1C(C)C (centres unmarked) [N-ethyl-5-methyl-2-propan-2-ylcyclohexane-1-carboxamide, reference compound] | 6.57 | –
